The values that follow come from patent US20060128695A1, “Cyclic nucleotide phosphodiesterase inhibitors, preparation and uses” (NEURO3D, priority 2002, published 2006).

The target of the first assay is T1, PDE2 (Bos taurus, UniProt P14099).
T1 construct: PDE2 was prepared from bovine endothelial cells by the same methods; endogenous in cells; host or cells: bovine endothelial cells
T1 sequence (P14099 1-921): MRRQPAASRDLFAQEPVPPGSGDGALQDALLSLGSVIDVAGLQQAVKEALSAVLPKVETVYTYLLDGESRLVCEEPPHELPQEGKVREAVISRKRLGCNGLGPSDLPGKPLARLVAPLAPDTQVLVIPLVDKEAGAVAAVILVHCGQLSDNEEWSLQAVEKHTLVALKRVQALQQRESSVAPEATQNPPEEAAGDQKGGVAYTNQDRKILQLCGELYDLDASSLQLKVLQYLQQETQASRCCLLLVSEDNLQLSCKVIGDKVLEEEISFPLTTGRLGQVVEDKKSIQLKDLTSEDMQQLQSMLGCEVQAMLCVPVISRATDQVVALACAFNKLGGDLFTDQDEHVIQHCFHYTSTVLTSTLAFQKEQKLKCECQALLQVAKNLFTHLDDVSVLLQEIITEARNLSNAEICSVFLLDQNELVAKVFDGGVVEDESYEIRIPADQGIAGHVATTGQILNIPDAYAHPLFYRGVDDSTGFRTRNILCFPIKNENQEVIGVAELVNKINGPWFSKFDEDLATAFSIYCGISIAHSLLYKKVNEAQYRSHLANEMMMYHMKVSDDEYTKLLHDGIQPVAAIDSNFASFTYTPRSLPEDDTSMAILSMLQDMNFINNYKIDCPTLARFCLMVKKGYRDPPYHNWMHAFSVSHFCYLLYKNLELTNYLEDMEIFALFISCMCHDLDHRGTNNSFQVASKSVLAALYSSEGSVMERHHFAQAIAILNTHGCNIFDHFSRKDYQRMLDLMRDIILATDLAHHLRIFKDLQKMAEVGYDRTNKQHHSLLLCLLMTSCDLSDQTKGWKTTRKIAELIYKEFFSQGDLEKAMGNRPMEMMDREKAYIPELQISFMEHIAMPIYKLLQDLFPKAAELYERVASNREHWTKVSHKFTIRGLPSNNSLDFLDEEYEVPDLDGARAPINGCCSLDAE
Nature of the assay: Inhibition of PDE2, radioenzymatic phosphodiesterase assay. The assay is classed as biochemical, bovine.
Conditions: not given
For orientation: IC50 means the concentration at which inhibition is half-maximal. In the case of `COc1cc2c(cc1OC)N(Cc1ccccc1)C(=O)CN=C2c1cccc(C#N)c1` [Compound 4m, 3-(1-benzyl-7,8-dimethoxy-2-oxo-2,3-dihydro-1H-1,4-benzodiazepin-5-yl)benzonitrile], the IC50 is 1.5 µM.
Same read-out and setting: with `COc1cc2c(cc1OC)N(C)C(=O)C(C)N=C2c1cccc(C(N)=O)c1` (centres unmarked) [Compound 5j, 3-(7,8-dimethoxy-1,3-dimethyl-2-oxo-2,3-dihydro-1H-1,4-benzodiazepin-5-yl) benzamide] the figure was 4.5 µM; with `COc1cc2c(cc1OC)N(C)C(=O)C(Cc1ccc(Cl)c(Cl)c1)N=C2c1cccc(C#N)c1` (centres unmarked) [Compound 7b, 3-[3-(3,4-dichlorobenzyl)-7,8-dimethoxy-1-methyl-2-oxo-2,3-dihydro-1H-1,4-benzodiazepin-5-yl]benzonitrile], 5.5 µM; with `COc1cc2c(cc1OC)N(C)C(=O)CN=C2c1cccc([N+](=O)[O-])c1` [Compound 17c, 7,8-dimethoxy-1-methyl-5-(3-nitrophenyl)-1,3-dihydro-1,4-benzodiazepin-2-one], 6.1 µM.
On to `COc1cc2c(cc1OC)N(C)C(=O)CN=C2c1cccc(C#CCNC(=O)OC(C)(C)C)c1` [Compound 6a, Tert-butyl-3-[3-(7,8-dimethoxy-1-methyl-2-oxo-2,3-dihydro-1H-1,4-benzodiazepin-5-yl)phenyl]propynylcarbamate], for which the IC50 is 8.4 µM.
Still for that read-out and setting: next, `COc1cc2c(cc1OC)N(C)C(=O)CN=C2c1cccc(C=O)c1` [Compound 17l, 5-(3-formylphenyl)-7,8-dimethoxy-1-methyl-1,3-dihydro-1,4-benzodiazepin-2-one]: 5 µM.
In the case of `COc1ccc2c(c1)NC(=O)CN=C2c1cccc(C#N)c1` [Compound 28a, 3-(8-methoxy-2-oxo-2,3-dihydro-1H-1,4-benzodiazepin-5-yl)benzonitrile], the IC50 stood at 65 µM.
`COc1cc2c(cc1OC)N(C)C(=O)CN=C2c1cccc(CCCCCC(N)=O)c1` [Compound 6i, 6-[3-(7,8-dimethoxy-1-methyl-2-oxo-2,3-dihydro-1H-1,4-benzodiazepin-5-yl)phenyl]hexanamide] came in with an IC50 of 5.6 µM.

The same assay, now with this note: 1 μM cyclic AMP; PDE2 from bovine endothelial cells; read-out: PDE2 IC50.
For the compound “tert-butyl-3-[5-(cyanophenyl)-(7,8-dimethoxy-1-methyl-2-oxo-2,3-dihydro-1H-1,4-benzodiazepin-6-yl)phenyl]prop-2-ynylcarbamate [Compound 25e]”, the IC50 was found to be 5 µM.

The same assay, now with this note: 10 μM test compound; PDE2 from bovine endothelial cells.
On to “[9-(3-aminoethynyl)-7,8-dimethoxy-1-methyl-2-oxo-2,3-dihydro-1H-1,4-benzodiazepin-5-yl]benzonitrile [Compound 25f]”, for which the “PDE2 percentage inhibition at 10 μM” value amounted to 0%.
For `COc1cc2c(cc1OC)N(C)C(=O)CN=C2c1cccc(C(=O)N2CCN(Cc3ccccc3)CC2)c1` [Compound 36e, 5-{3-[(4-benzylpyperazin-1-yl)carbonyl]phenyl}7,8-dimethoxy-1-methyl-2-oxo-2,3-dihydro-1H-1,4-benzodiazepin-2-one], the “PDE2 percentage inhibition at 10 μM” value came to 27%.
Same read-out and setting: next, “[6-(3-aminoethynyl)-7,8-dimethoxy-1-methyl-2-oxo-2,3-dihydro-1H-1,4-benzodiazepin-5-yl]benzonitrile [Compound 25g]”: 14.5%.
Consider `COc1cc2c(cc1OC)N(Cc1ccc(Cl)c(Cl)c1)C(=O)CN=C2c1cccc(C#N)c1` [Compound 4d, 3-[1-(3,4-chlorobenzyl)-7,8-dimethoxy-2-oxo-2,3-dihydro-1H-1,4-benzodiazepin-5-yl]-benzonitrile], for which the “PDE2 percentage inhibition at 10 μM” value is on record as 47.6%.

The same assay, now with this note: 10 μM test compound; PDE2 from bovine endothelial cells; read-out: PDE2 percentage inhibition at 10 μM.
One may read the inhibition as how much of the control response was suppressed. As for `COc1cc2c(c(Br)c1OC)N(C)C(=O)CN=C2c1cccc(C(N)=O)c1` [Compound 5d, 3-(9-bromo-7,8-dimethoxy-1-methyl-2-oxo-2,3-dihydro-1H-1,4-benzodiazepin-5-yl)benzamide], the inhibition at 10 µM is 19.2%.
The same measure, in the same setting: next, `COc1cc2c(cc1OC)N(C)C(=O)CN=C2c1cccc(C(N)=S)c1` [Compound 9a, 3-(7,8-dimethoxy-1-methyl-2-oxo-2,3-dihydro-1H-1,4-benzodiazepin-5-yl)thiobenzamide]: 85%; `COc1cc2c(cc1OC)N(C)C(=O)CN=C2c1cccc(C(=O)NC(C)C)c1` [Compound 36a, 3-(7,8-dimethoxy-1-methyl-2-oxo-2,3-dihydro-1H-1,4-benzodiazepin-5-yl)N-isopropylbenzamide]: 75.9%.

The same assay, now with this note: read-out: PDE2 percentage inhibition at 10 μM.
For `COc1cc2c(cc1OC)N(Cc1ccccc1)C(=O)CN=C2c1cccc(C(F)(F)F)c1` [Compound 4s, 1-benzyl-5-[3-(trifluoromethyl)phenyl]-7,8-dimethoxy-1,3-dihydro-1,4-benzodiazepin-2-one], the inhibition at 10 µM worked out at 14%.
For `COc1cc2c(c(Br)c1O)C(c1cccc(C#N)c1)=NCC(=O)N2` [Compound 23b, 3-(6-bromo-7-hydroxy-8-methoxy-2-oxo-2,3-dihydro-1H-1,4-benzodiazepin-5-yl)benzonitrile], the inhibition at 10 µM stood at 20.1%.
Turning to `CCOC(=O)CN1C(=O)CN=C(c2cccc(C(N)=O)c2)c2cc(OC)c(OC)cc21` [Compound 5i, Ethyl{5-[3-(aminocarbonyl)phenyl]-7,8-dimethoxy-2-oxo-2,3-dihydro-1H-1,4-benzodiazepin-1-yl}acetate], the inhibition at 10 µM stood at 0%.
Regarding `CCCN1C(=O)CN=C(c2cccc(C(F)(F)F)c2)c2cc(OC)c(OC)cc21` [Compound 4r, 5-[3-(trifluoromethyl)phenyl]-7,8-dimethoxy-1-n-propyl-1,3-dihydro-1,4-benzodiazepin-2-one], the inhibition at 10 µM turned out to be 34%.
For the compound `COc1cc2c(c(-c3ccccc3)c1OC)N(C)C(=O)CN=C2c1cccc(C#N)c1` [Compound 25a, 3-(7,8-dimethoxy-1-methyl-2-oxo-9-phenyl-2,3-dihydro-1H-1,4-benzodiazepin-5-yl)benzonitrile], the inhibition at 10 µM was found to be 0%.
With `CCCN1C(=O)CN=C(c2cccc(C#N)c2)c2cc(OC)c(OC)cc21` [Compound 4l, 3-(7,8-dimethoxy-1-propyl-2-oxo-2,3-dihydro-1H-1,4-benzodiazepin-5-yl)benzonitrile], the inhibition at 10 µM is 72.1%.
In the case of `COc1cc2c(cc1OC)N(C)C(=O)CN=C2c1cccc(-c2cccc(C(N)=O)c2)c1` [Compound 6o, 3′-(7,8-dimethoxy-1-methyl-2-oxo-2,3-dihydro-1H-1,4-benzodiazepin-5-yl)-1,1′-biphenyl-3-carboxamide], the inhibition at 10 µM was 79.3%.
On to `COc1cc2c(cc1OC)N(C)C(=O)C(C)N=C2c1cccc(C#N)c1` (centres unmarked) [Compound 7d, 3-(7,8-dimethoxy-1,3-dimethyl-2-oxo-2,3-dihydro-1H-1,4-benzodiazepin-5-yl)benzonitrile], for which the inhibition at 10 µM amounted to 33.8%.
Turning to `COc1cc2c(cc1OC)-n1ccnc1CN=C2c1cccc(C#N)c1` [Compound 11a, 3-(8,9-dimethoxy-4H-imidazo[1,2-a][1,4]benzodiazepin-6-yl)benzonitrile], the inhibition at 10 µM is 43%.
With `COc1cc2c(cc1OC)N(Cc1ccc(C(F)(F)F)cc1)C(=O)CN=C2c1cccc(C#N)c1` [Compound 4i, 3-{7,8-dimethoxy-2-oxo-1-[4-(trifluoromethyl)benzyl]-2,3-dihydro-1H-1,4-benzodiazepin-5-yl}-benzonitrile], the inhibition at 10 µM came out at 15.7%.
As to `COc1cc2c(cc1OC)N(C)C(=O)C(C)N=C2c1cccc(C(F)(F)F)c1` (centres unmarked) [Compound 7c, 7,8-dimethoxy-1,3-dimethyl-5-(3-trifluoromethylphenyl)-1,3-dihydro-2H-1,4-benzodiazepin-2-one], the inhibition at 10 µM is 41%.
For the compound `COc1cc2c(cc1OC)C(c1cccc(C#N)c1)=NCC(=S)N2` [Compound 10d, 5-(3-cyanophenyl)-7,8-dimethoxy-1,3-dihydro-2H-1,4-benzodiazepin-2-thione], the inhibition at 10 µM was 5.5%.
For `COc1ccc2c(c1)C(c1cccc(C#N)c1)=NCC(=O)N2` [Compound 28c, 3-(7-methoxy-2-oxo-2,3-dihydro-1H-1,4-benzodiazepin-5-yl)benzonitrile], the inhibition at 10 µM amounted to 46.5%.
For `COc1ccc2c(c1)NC(=O)CN=C2c1cccc(C#N)c1` [Compound 28a, 3-(8-methoxy-2-oxo-2,3-dihydro-1H-1,4-benzodiazepin-5-yl)benzonitrile], the inhibition at 10 µM came out at 52.5%.
Same read-out and setting: next, `COc1cc2c(c(-c3ccccc3)c1OC)N(C)C(=O)CN=C2c1cccc(C(N)=O)c1` [Compound 5m, 3-(7,8-dimethoxy-1-methyl-2-oxo-9-phenyl-2,3-dihydro-1H-1,4-benzodiazepin-5-yl)benzamide]: 5.9%.
`CCN1C(=O)CN=C(c2cccc(C(F)(F)F)c2)c2cc(OC)c(OC)cc21` [Compound 4q, 7,8-dimethoxy-1-ethyl-5-[3-(trifluoromethyl)phenyl]-1,3-dihydro-2H-1,4-benzodiazepin-2-one]: the inhibition at 10 µM was 32%.
